From PubChem BioAssay (NCI)
Values joined by “and” are separate entries in the source; they are usually repeats but may differ in a detail not shown here. Identical values can stand only once.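 Protocol summary: plate cells (96-well), add compound at 5 concentrations, incubate 48 h, interpolate endpoints linearly. TGI denotes the concentration required for complete inhibition of growth.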

Assays:
Assay in all cases: NCI anticancer screen, dose series, 48 h
[1] = system: TK-10 renal
[2] = system: SF-539 CNS
[3] = system: OVCAR-3 ovarian
[4] = system: M14 melanoma
[5] = system: UACC-257 melanoma
[6] = system: KM12 colon
[7] = system: HOP-92 NSCLC
[8] = system: MDA-N
[9] = system: IGROV1 ovarian
[10] = system: SK-OV-3 ovarian

CC1(C)N=C(C(N)=O)c2ncn(CCO)c2N1
TGI [1]: > 100 µM
TGI [2]: > 100 µM
TGI [3]: > 100 µM
TGI [4]: > 100 µM
TGI [5]: > 100 µM
TGI [6]: > 100 µM
TGI [7]: > 100 µM
TGI [8]: > 100 µM
TGI [9]: > 100 µM
TGI [10]: > 100 µM

Cc1c(C(=O)N2CCN(c3ccc([N+](=O)[O-])cc3)CC2)[n+](=O)c2cc(Cl)c(Cl)cc2n1[O-]
TGI [1]: 39.3 µM
TGI [2]: 32.6 µM
TGI [3]: 43.2 µM
TGI [4]: > 100 µM
TGI [5]: > 100 µM
TGI [6]: > 100 µM
TGI [7]: 34.4 µM
TGI [8]: > 100 µM
TGI [9]: 42.7 µM
TGI [10]: 29.5 µM

CNc1ccc(-c2nc3cc(C)ccc3o2)cc1
TGI [1]: > 100 µM
TGI [2]: > 100 µM
TGI [3]: > 100 µM
TGI [4]: > 100 µM
TGI [5]: > 100 µM
TGI [6]: > 100 µM
TGI [7]: > 100 µM
TGI [8]: > 100 µM
TGI [9]: > 100 µM
TGI [10]: 61 µM

CCOC(=O)/C(=C\c1ccc(N(C)C)cc1)S(=O)(=O)C(F)(F)C(F)(F)C(F)(F)C(F)(F)F
TGI [1]: > 100 µM
TGI [2]: > 100 µM
TGI [3]: > 100 µM
TGI [4]: > 100 µM
TGI [5]: > 100 µM
TGI [6]: > 100 µM
TGI [7]: > 100 µM
TGI [8]: > 100 µM
TGI [9]: > 100 µM
TGI [10]: > 100 µM

O=C(Nc1cccc(C(F)(F)F)c1)O/N=C(/Cl)CCl
TGI [1]: > 100 µM
TGI [2]: > 100 µM
TGI [3]: > 100 µM
TGI [4]: > 100 µM
TGI [5]: > 100 µM
TGI [6]: > 100 µM
TGI [7]: 59.2 µM
TGI [8]: > 100 µM
TGI [9]: > 100 µM
TGI [10]: > 100 µM

CCOC(=O)Nc1c(C#N)[n+]([O-])c2cc(Cl)c(Cl)cc2[n+]1[O-]
TGI [1]: > 100 µM
TGI [2]: 30.9 µM
TGI [3]: 42.6 µM
TGI [4]: 38.9 µM
TGI [5]: 36.1 µM
TGI [6]: 64.8 µM
TGI [7]: 23 µM
TGI [8]: 43 µM
TGI [9]: 28.6 µM
TGI [10]: 66 µM

NC(=Nc1ccc(O)cc1)S(=O)(=O)O
TGI [1]: > 100 µM
TGI [2]: > 100 µM
TGI [3]: > 100 µM
TGI [4]: > 100 µM
TGI [5]: > 100 µM
TGI [6]: > 100 µM
TGI [7]: > 100 µM
TGI [8]: > 100 µM
TGI [9]: > 100 µM
TGI [10]: > 100 µM

COC1=C(N=[N+]=[N-])C(=O)c2ncccc2C1=O
TGI [1]: 20.4 µM
TGI [2]: 30.5 µM
TGI [3]: 15.5 µM
TGI [4]: 8.66 µM
TGI [5]: 13 µM
TGI [6]: 29.5 µM
TGI [7]: 2.56 µM
TGI [8]: 3.69 µM
TGI [9]: 13.1 µM
TGI [10]: 28.5 µM

COc1cc(OC)c2c(O)c3c(cc2c1)CC(C)(C)CC3=O
TGI [1]: > 100 µM
TGI [2]: > 100 µM
TGI [3]: > 100 µM
TGI [4]: > 100 µM
TGI [5]: > 100 µM
TGI [6]: > 100 µM
TGI [7]: > 100 µM
TGI [8]: > 100 µM
TGI [9]: > 100 µM
TGI [10]: > 100 µM

O=C1NC(N/N=C\C(O)C(O)C(O)CO)=N/C1=C/c1ccc(Cl)cc1 (stereo not given)
TGI [1]: > 100 µM
TGI [2]: > 100 µM
TGI [3]: 58.3 µM and 91.9 µM
TGI [4]: 77.8 µM
TGI [5]: > 100 µM
TGI [6]: > 100 µM
TGI [7]: > 100 µM
TGI [8]: > 100 µM
TGI [9]: > 100 µM
TGI [10]: > 100 µM

CN(C)c1ccc(/C=C2\N=C(NN)NC2=O)cc1
TGI [1]: > 100 µM
TGI [2]: 96.6 µM
TGI [3]: > 100 µM
TGI [4]: > 100 µM
TGI [5]: > 100 µM
TGI [6]: > 100 µM
TGI [7]: > 100 µM
TGI [8]: > 100 µM
TGI [9]: > 100 µM
TGI [10]: > 100 µM

CC(C)CCC[C@@H](C)[C@H]1CCC2C3CC=C4C[C@@H](Oc5c6ccccc6nc6ccccc56)CCC4C3CCC21 (stereo not given in full)
TGI [1]: > 50 µM
TGI [2]: > 50 µM
TGI [3]: > 50 µM
TGI [4]: > 50 µM
TGI [5]: > 50 µM
TGI [6]: > 50 µM
TGI [7]: > 50 µM
TGI [8]: > 50 µM
TGI [9]: > 50 µM
TGI [10]: > 50 µM

CCCCCC(=O)N[C@@H](c1ccccc1)C(O)C(=O)OC1C[C@@]2(O)C(OC(=O)c3ccccc3)C3[C@](C)(C(=O)[C@H](O)C(=C1C)C2(C)C)C(OC1OCC(O)C(O)C1O)C[C@H]1OC[C@@]31OC(C)=O (stereo not given in full)
TGI [1]: > 100 µM
TGI [2]: 5.68 µM
TGI [3]: 5.2 µM
TGI [4]: > 88.1 µM
TGI [5]: > 100 µM
TGI [6]: > 38.3 µM
TGI [7]: > 100 µM
TGI [8]: 1.03 µM
TGI [9]: > 100 µM
TGI [10]: 57.2 µM

Clc1cc2c(c(CSC3=NCN(CC4CC4)CN3)c1)OCOC2
TGI [1]: 40.8 µM
TGI [2]: 43.4 µM
TGI [3]: > 100 µM
TGI [4]: 27.9 µM
TGI [5]: 33.1 µM
TGI [6]: > 100 µM
TGI [7]: > 100 µM
TGI [8]: 38.6 µM
TGI [9]: > 100 µM
TGI [10]: 67.1 µM

O=C1/C(=C\c2cccc(Oc3ccccc3)c2)S(=O)(=O)C(c2ccccc2)N1c1ccccc1Cl (stereo not given)
TGI [1]: > 100 µM
TGI [2]: 34.3 µM
TGI [3]: 64.3 µM
TGI [4]: 89.1 µM
TGI [5]: > 100 µM
TGI [6]: > 100 µM
TGI [7]: 73.5 µM
TGI [8]: 50.2 µM
TGI [9]: > 100 µM
TGI [10]: > 100 µM

Cc1ccc(N=Nc2c(O)ccc3cc(S(=O)(=O)O)ccc23)c(C)c1
TGI [1]: > 100 µM
TGI [2]: > 100 µM
TGI [3]: > 100 µM
TGI [4]: > 100 µM
TGI [5]: > 100 µM
TGI [6]: > 100 µM
TGI [7]: > 100 µM
TGI [8]: > 100 µM
TGI [9]: > 100 µM
TGI [10]: > 100 µM

C=CCOc1ccccc1N=N/C(C#N)=N\Nc1ccccc1OCC=C
TGI [1]: > 100 µM
TGI [2]: > 100 µM
TGI [3]: > 100 µM
TGI [4]: > 100 µM
TGI [5]: > 100 µM
TGI [6]: > 100 µM
TGI [7]: > 100 µM
TGI [8]: 94.7 µM
TGI [9]: > 100 µM
TGI [10]: > 100 µM
